Measured values: patent US12275734B1, “Pleuromutilin onium salt derivative containing a 3H-imidazo[4,5-c]pyridine side chain, and a preparation method and application thereof” (SHAANXI UNIVERSITY OF SCIENCE AND TECHNOLOGY, priority 2024, dated 2025)

Experiments:
Experiment in all cases: MIC, broth microdilution
Format in all cases: cell-based
E.coli CMCC 44103 = conditions: Escherichia coli, CMCC44103; E.coli CMCC 44103; read-out: Minimum inhibitory concentration E.c.^i
Procedure: (§1) The minimum inhibitory concentration of 3H-imidazo[4,5-C]pyridine pleuromutilin onium salt derivatives against the tested pathogenic microorganisms were determined by broth microdilution method, with valnemulin and retapamulin as positive controls.
(§2) The experimental strains included resistant Gram-positive bacteria: Methicillin-resistant S. aureus ATCC 33591; Methicillin-resistant S. aureus ATCC 43300; S. aureus ATCC 29213; Methicillin-resistant S. epidermidis ATCC 51625. Resistant Gram-negative bacteria: A. baumannii ATCC 19606; S. enterica ATCC14028; E. coli ATCC 25922; E. coli CMCC 44103. 9 clinically isolated resistant strains: MRSA-171; MRSA-575; MRSA-206; MRSA-222; MRSA-596; VRE-80; MDR-PA-126; MDR-KP-893; CR-AB-882.
(§3) (1) Preparation of MHB medium: Weigh 18.0 g of MHB medium pre-made powder, add it to 1 L of distilled water, heat and boil until completely dissolved, divide it into conical bottles, sterilize it by high pressure at 121° C. for 15 minutes, and set aside.
(§4) (2) Cultivate the experimental strain to the logarithmic growth phase: Under sterile conditions, inoculate the experimental strain into fresh MHB medium and culture it in a 37° C. constant temperature and humidity incubator for 16-24 hours. Adjust the bacterial solution concentration to 1.5×10^8 CFU/mL and then dilute it 200 times for later use.
(§5) (3) Preparation of storage solution: Weigh the sample to be tested, dissolve it in 1% DMSO solution, and prepare a storage solution with a concentration of 2560 μg/mL; weigh the positive control, dissolve it in sterile distilled water, and prepare a storage solution with a concentration of 2560 μg/mL.
(§6) (4) Preparation of bacterial suspension: Under sterile conditions, the experimental strain cultured to the logarithmic growth phase was calibrated to a 0.5 McFarland unit turbidity standard using MHB medium and then diluted at a ratio of 1:200 to prepare a bacterial suspension with a concentration of 5×10^5 CFU/mL for later use.
(§7) (5) Determination of MIC by two-fold microdilution method: Take a sterile 96-well plate, add 10 μL of the test compound at a concentration of 2560 μg/mL, and perform serial dilutions by the two-fold dilution method. At the same time, set up a negative control group without drug. Then add 190 μL of diluted bacterial solution to each well, so that the final bacterial solution concentration in each well is 5×10^5 CFU/mL, and incubate in a 37° C. constant temperature and humidity chamber for 24 hours.

S. aureus ATCC 29213 = conditions: Staphylococcus aureus, ATCC29213; S. aureus ATCC 29213; read-out: Minimum inhibitory concentration S.a.^d
Procedure: as §1, §2, §3, §4, §5, §6, §7

[1] = tested on: Methicillin-resistant S. aureus ATCC 43300; conditions: Staphylococcus aureus, ATCC 43300 / MRSA; Methicillin-resistant S. aureus ATCC 43300; read-out: Minimum inhibitory concentration MRSA^c
Procedure: as §1, §2, §3, §4, §5, §6, §7

A. baumannii ATCC 19606 = conditions: Acinetobacter baumannii, ATCC19606; A. baumannii ATCC 19606; read-out: Minimum inhibitory concentration A.b.^f
Procedure: as §1, §2, §3, §4, §5, §6, §7

E. coli ATCC 25922 = conditions: Escherichia coli, ATCC25922; E. coli ATCC 25922; read-out: Minimum inhibitory concentration E.c.^h
Procedure: as §1, §2, §3, §4, §5, §6, §7

[2] = tested on: Methicillin-resistant S. aureus ATCC 33591; conditions: Staphylococcus aureus, ATCC 33591 / MRSA; Methicillin-resistant S. aureus ATCC 33591; read-out: Minimum inhibitory concentration MRSA^b
Procedure: as §1, §2, §3, §4, §5, §6, §7

[3] = tested on: Methicillin-resistant S. epidermidis ATCC 51625; conditions: Staphylococcus epidermidis, ATCC 51625 / MRSE; Methicillin-resistant S. epidermidis ATCC 51625; read-out: Minimum inhibitory concentration MRSE^e
Procedure: as §1, §2, §3, §4, §5, §6, §7

S. enterica ATCC14028 = conditions: Salmonella enterica; S. enterica ATCC14028; read-out: Minimum inhibitory concentration S.e.^g
Procedure: as §1, §2, §3, §4, §5, §6, §7

Compound	MIC (E.coli CMCC 44103) [µg/mL]	MIC (S. aureus ATCC 29213) [µg/mL]	MIC [1] [µg/mL]	MIC (A. baumannii ATCC 19606) [µg/mL]	MIC (E. coli ATCC 25922) [µg/mL]	MIC [2] [µg/mL]	MIC [3] [µg/mL]	MIC (S. enterica ATCC14028) [µg/mL]
C=C[C@]1(C)C[C@@H](OC(=O)CSc2nc3cc[n+](Cc4ccc([N+](=O)[O-])cc4)cc3[nH]2)[C@]2(C)[C@H](C)CC[C@]3(CCC(=O)[C@H]32)[C@@H](C)[C@@H]1O [Compound f, 5-(4-nitrobenzyl)-2-((2-(((3aR,4R,5R,7S,8S,9R,9aS,12R)-8-hydroxy-4,7,9,12-tetramethyl-3-oxo-7-vinyldecahydro-4,9a-propancyclopenta[8]cyclo-5-yl)oxy)-2-oxoethyl)thio)-3H-imidazo[4,5-C]pyridine-5-ium]	8	4	2	8	16	8	4	4
C=C[C@]1(C)C[C@@H](OC(=O)CSc2nc3cc[n+](Cc4cc(F)ccc4C#N)cc3[nH]2)[C@]2(C)[C@H](C)CC[C@]3(CCC(=O)[C@H]32)[C@@H](C)[C@@H]1O [Compound m, 5-(2-cyano-5-fluorobenzyl)-2-((2-(((3aR,4R,5R,7S,8S,9R,9aS,12R)-8-hydroxy-4,7,9,12-tetramethyl-3-oxo-7-vinyldecahydro-4,9a-propancyclopenta[8]cyclo-5-yl)oxy)-2-oxoethyl)thio)-3H-imidazo[4,5-C]pyridine-5-ium]	32	32	32	64	64	64	64	32
C=C[C@]1(C)C[C@@H](OC(=O)CSc2nc3cc[n+](Cc4ccc(C(F)(F)F)cc4)cc3[nH]2)[C@]2(C)[C@H](C)CC[C@]3(CCC(=O)[C@H]32)[C@@H](C)[C@@H]1O [Compound b, 5-(4-trifluoromethyl)-2-((2-(((3aR,4R,5R,7S,8S,9R,9aS,12R)-8-hydroxy-4,7,9,12-tetramethyl-3-oxo-7-vinyldecahydro-4,9a-propancyclopenta[8]cyclo-5-yl)oxy)-2-oxoethyl)thio)-3H-imidazo[4,5-C]pyridine-5-ium]	16	64	64	64	32	32	32	16
C=C[C@]1(C)C[C@@H](OC(=O)CSc2nc3cc[n+](Cc4cc(C)cc(C)c4)cc3[nH]2)[C@]2(C)[C@H](C)CC[C@]3(CCC(=O)[C@H]32)[C@@H](C)[C@@H]1O [Compound l, 5-(3,5-dimethylbenzyl)-2-((2-(((3aR,4R,5R,7S,8S,9R,9aS,12R)-8-hydroxy-4,7,9,12-tetramethyl-3-oxo-7-vinyldecahydro-4,9a-propancyclopenta[8]cyclo-5-yl)oxy)-2-oxoethyl)thio)-3H-imidazo[4,5-C]pyridine-5-ium]	64	64	32	64	64	64	64	32
C=C[C@]1(C)C[C@@H](OC(=O)CSc2nc3cc[n+](Cc4ccc(Br)cc4)cc3[nH]2)[C@]2(C)[C@H](C)CC[C@]3(CCC(=O)[C@H]32)[C@@H](C)[C@@H]1O [Compound a, 5-(4-bromobenzyl)-2-((2-(((3aR,4R,5R,7S,8S,9R,9aS,12R)-8-hydroxy-4,7,9,12-tetramethyl-3-oxo-7-vinyldecahydro-4,9a-propancyclopenta[8]cyclo-5-yl)oxy)-2-oxoethyl)thio)-3H-imidazo[4,5-c]pyridin-5-ium]	8	8	4	32	16	8	16	4
C=C[C@]1(C)C[C@@H](OC(=O)CSc2nc3cc[n+](Cc4ccc(OC)cc4)cc3[nH]2)[C@]2(C)[C@H](C)CC[C@]3(CCC(=O)[C@H]32)[C@@H](C)[C@@H]1O [Compound d, 5-(4-methoxybenzyl)-2-((2-(((3aR,4R,5R,7S,8S,9R,9aS,12R)-8-hydroxy-4,7,9,12-tetramethyl-3-oxo-7-vinyldecahydro-4,9a-propancyclopenta[8]cyclo-5-yl)oxy)-2-oxoethyl)thio)-3H-imidazo[4,5-C]pyridine-5-ium]	32	32	8	16	4	16	16	16
C=C[C@]1(C)C[C@@H](OC(=O)CSc2nc3cc[n+](Cc4cc(OC)cc(OC)c4)cc3[nH]2)[C@]2(C)[C@H](C)CC[C@]3(CCC(=O)[C@H]32)[C@@H](C)[C@@H]1O [Compound n, 5-(3,5-dimethoxybenzyl)-2-((2-(((3aR,4R,5R,7S,8S,9R,9aS,12R)-8-hydroxy-4,7,9,12-tetramethyl-3-oxo-7-vinyldecahydro-4,9a-propancyclopenta[8]cyclo-5-yl)oxy)-2-oxoethyl)thio)-3H-imidazo[4,5-C]pyridine-5-ium]	32	32	32	64	64	64	64	128
C=C[C@]1(C)C[C@@H](OC(=O)CSc2nc3cc[n+](Cc4cc(F)c(F)cc4F)cc3[nH]2)[C@]2(C)[C@H](C)CC[C@]3(CCC(=O)[C@H]32)[C@@H](C)[C@@H]1O [Compound g, 5-(2,4,5-trifluorobenzyl)-2-((2-(((3aR,4R,5R,7S,8S,9R,9aS,12R)-8-hydroxy-4,7,9,12-tetramethyl-3-oxo-7-vinyldecahydro-4,9a-propancyclopenta[8]cyclo-5-yl)oxy)-2-oxoethyl)thio)-3H-imidazo[4,5-C]pyridine-5-ium]	128	64	64	64	64	128	64	128
C=C[C@]1(C)C[C@@H](OC(=O)CSc2nc3cc[n+](Cc4ccc(C(C)(C)C)cc4)cc3[nH]2)[C@]2(C)[C@H](C)CC[C@]3(CCC(=O)[C@H]32)[C@@H](C)[C@@H]1O [Compound k, 5-(4-(tert-butyl)benzyl)-2-((2-(((3aR,4R,5R,7S,8S,9R,9aS,12R)-8-hydroxy-4,7,9,12-tetramethyl-3-oxo-7-vinyldecahydro-4,9a-propancyclopenta[8]cyclo-5-yl)oxy)-2-oxoethyl)thio)-3H-imidazo[4,5-C]pyridine-5-ium]	32	16	32	16	32	8	8	32
C=C[C@]1(C)C[C@@H](OC(=O)CSc2nc3cc[n+](Cc4ccc(Cl)cc4)cc3[nH]2)[C@]2(C)[C@H](C)CC[C@]3(CCC(=O)[C@H]32)[C@@H](C)[C@@H]1O [Compound e, 5-(4-chlorobenzyl)-2-((2-(((3aR,4R,5R,7S,8S,9R,9aS,12R)-8-hydroxy-4,7,9,12-tetramethyl-3-oxo-7-vinyldecahydro-4,9a-propancyclopenta[8]cyclo-5-yl)oxy)-2-oxoethyl)thio)-3H-imidazo[4,5-C]pyridine-5-ium]	16	8	16	16	32	32	16	32
